Earlier results in patent publication US20060240493A1, “Cca1 as an antifungal target” (priority 2002, published 2006).

Conditions: mice, DOX 2 mg/ml in 5% sucrose drinking water, approximately 5 ml every day

SMILES: C[C@H]1c2cccc(O)c2C(=O)C2=C(O)[C@]3(O)C(=O)C(C(N)=O)=C(O)[C@@H](N(C)C)[C@@H]3[C@@H](O)[C@@H]21 [doxycycline]
- concentration of DOX in kidney: > 10 mg/g of kidney
- concentration of DOX in liver: > 8 mg/g of liver
- concentration of DOX in serum: more than 2 mg/ml of serum
